Values joined by “and” are separate entries in the source; they are usually repeats but may differ in a detail not shown here. Equal values may be shown once.
Tested on: CEM cells
Assay: Non-targeted LC-MS metabolite profiling: percent [13C6]glucose labeling and relative metabolite levels
Type: cell-based, human
Details: CEM cells, 12 h following release from G1 arrest, replicates #1-#6
Description: To further investigate the functions of dCK and ATR at the G1/S transition in CEM cells, a non-targeted liquid chromatography mass spectrometry (LC-MS) assay was used to determine the utilization of labeled [^13C6]glucose and [^13C9,^15N3]deoxycytidine, the main substrates for de novo and salvage nucleotide biosynthesis, respectively. Of the 166 metabolites identified in CEM cells treated with VE-822 and/or dCKi, 105 metabolites found in all four treatment groups contained glucose-derived ^13C atoms. […] These metabolites included intermediates such as rUTP, rCTP and rCDP in the de novo dCTP biosynthesis (Fig. 1d). […] However, several deoxyribonucleotides, including dCTP, were below the limit of detection of the non-targeted LC-MS approach, raising the concern that the sensitivity of this assay is not sufficient to measure the contribution of the salvage pathway or the ratio of de novo and salvage biosynthesis to these pools. To address this problem, a newly developed targeted MS assay was developed (Fig. 1e and Supplementary Fig. 3). In this assay, samples containing either extracted dNTPs or hydrolyzed DNA from labeled cells are separated by LC for detection by a triple quadrupole mass spectrometer using multiple reaction monitoring (LC-MS/MS-MRM). The first (Q1) and third (Q3) quadrupoles function as mass filters, while the second (Q2) quadrupole serves as a collision chamber (Fig. 1e). For instance, to profile the biosynthetic composition of deoxycytidine (dC) derived from hydrolyzed DNA or dCTP, an intact, protonated dC ion is selected in Q1, followed by fragmentation of the glycosidic bond, which releases protonated cytosine in Q2, that is filtered in Q3 and detected to generate an ion chromatogram. The peak areas for the ion chromatograms of salvage [^13C9,^15N3]dC (red trace), de novo [^13C5]dC (black trace, from [^13C6]glucose) and unlabeled dC (gray trace) (Fig. 1e) are used to determine the relative contributions of the de novo and salvage routes both to dCTP pools and to DNA-incorporated dCTP.
Cells were transferred into RPMI-1640 without glucose and supplemented with 10% dialyzed FBS (Gibco) containing the following labeled substrates: precursors for de novo [U-^13C6]glucose (Sigma-Aldrich, 389374) at 11 mM; precursors for purine salvage [U-^13C10,^15N5]dA (Cambridge Isotopes, CIL 3896), [^15N5]dA (Cambridge Isotopes, NLM-3895) and [^15N5]dG (Cambridge Isotopes, NLM-3899) at 5 µM or as indicated; and precursors for pyrimidine salvage: [U-^13C9,^15N3]dC (Silantes, 124603602) and [U-^13C10,^15N2]dT (Cambridge Isotopes, CNLM-3902) at 5 µM and [^15N2]orotate (Cambridge Isotopes, NLM-1048) at indicated concentrations. The cells were incubated for 12 h or as indicated before sample collection and processing. […]
Non-targeted LC-MS metabolic assays. 1 x 10^6 cells were washed with ice-cold 150 mM ammonium acetate twice before adding 1 mL of ice-cold 80% methanol with 10 nM norvaline as an internal standard. After vigorous vortexing, samples were centrifuged at maximum speed, the aqueous layer was transferred to a glass vial and the metabolites were dried under vacuum. Metabolites were resuspended in 50 μL 70% acetonitrile (ACN) and 5 μL of this solution used for the mass spectrometer-based analysis. The analysis was performed on a Q Exactive (Thermo Scientific) in polarity-switching mode with positive voltage 4.0 kV and negative voltage 4.0 kV. The mass spectrometer was coupled to an UltiMate 3000RSLC (Thermo Scientific) UHPLC system. Mobile phase A was 5 mM ammonium acetate (NH4AcO), pH 9.9, B was acetonitrile and the separation achieved on a Luna […] NH2 100 A column (150 × 2.0 mm, Phenomenex). The flow was 200 μL/min, and the gradient ran from 15% A to 95% A in 18 min, followed by an isocratic step for 9 min and re-equilibration for 7 min. Metabolites were detected and quantified as area under the curve based on retention time and accurate mass (≤ 3 p.p.m.) using the TraceFinder 3.1 (Thermo Scientific). Relative amounts of […]

## CNCc1ccc(-c2cc(-c3nc(-c4ccc(S(=O)(=O)C(C)C)cc4)cnc3N)on2)cc1 [VE-822]
  Glucose labeling, Tyr (C00082): 0.00%
  Glucose labeling, Uric Acid (C00366): 0.00%
  Relative level, Orotate: 0.7
Listed as V
  Glucose labeling, Lac: 18.07% and 12.73% and 18.58% and 10.84% and 13.61% and 9.63%
  Glucose labeling, Lys: 0.00% (4×) and 1.11e-14% (2×)
  Glucose labeling, Mal: 21.43% and 21.55% and 21.63% and 20.66% and 20.63% and 19.36%
  Glucose labeling, Met: 0.00201% and 0.00233% and 0.002% and 0.0022% and 0.00164% and 0.00224%
  Glucose labeling, N-Carbamoyl-L-aspartate: 0.12% (3×) and 1.58% and 100.00% (2×)
  Glucose labeling, NADP+: 0.00% (5×) and 100.00%
  Glucose labeling, Nicotinamide: 0.00% (4×) and -2.22e-14% and 1.11e-14%
  Glucose labeling, Ornithine: 0.12% (3×) and 0.10% and 0.0528% and 0.00133%
  Glucose labeling, Orotate: 100.00% (5×) and 0.0318%
  Glucose labeling, Orotidine: 33.66% and 31.88% and 29.83% and 33.19% and 33.56% and 35.92%
  Glucose labeling, P-Choline: 0.00204% (2×) and 0.00195% and 0.0016% and 0.00194% and 0.00159%
  Glucose labeling, P-Ser: 17.40% and 18.30% and 18.56% and 14.37% and 10.74% and 15.47%
  Glucose labeling, Palmitate: 0.0183% and 0.0339% and 0.00791% and 0.04% and 0.0649% and 0.00591%
  Glucose labeling, Pantothenate: 0.00% (5×) and 1.11e-14%
  Glucose labeling, Pro: 9.73% and 9.96% and 9.64% and 8.05% and 8.31% and 8.35%
  Glucose labeling, Pro-OH: 0.00141% and 0.00104% and 0.000977% and 0.00201% and 0.00147% and 0.00157%
  Glucose labeling, R5P: 100.00% (5×) and 87.46%
  Glucose labeling, S7P: 82.53% and 82.63% and 83.80% and 82.99% and 87.27% and 79.29%
  Glucose labeling, SAM: 61.24% and 62.78% and 63.01% and 60.62% and 59.88% and 60.86%
  Glucose labeling, Ser (C00065): 11.13% and 10.40% and 10.89% and 9.46% and 9.59% and 9.87%
  Glucose labeling, Shikimate (C00493): 0.00% (5×) and 1.11e-14%
  Glucose labeling, Succ (C00042): 0.93% and 0.0737% (3×) and 0.000466% and 0.000404%
  Glucose labeling, T (C00214): 0.47% and 0.23% and 0.34% and 0.00858% and 0.08% (2×)
  Glucose labeling, Thymine (C00178): 0.000884% and 0.000908% and 0.01% and 0.02% (2×) and 0.000701%
  Glucose labeling, Trp (C00078): 0.00% (4×) and -2.22e-14% and 1.11e-14%
  Glucose labeling, Tyramine (C00483): 0.00% (4×) and -2.22e-14% and 1.11e-14%
  Glucose labeling, UDP (C00015): 69.98% and 62.30% and 68.54% and 67.03% and 57.99% and 53.20%
  Glucose labeling, UDP-Glc (C00029): 98.27% and 97.52% and 97.62% and 96.48% and 95.86% and 94.41%
  Glucose labeling, UDP-GlcNAc (C00043): 91.42% and 92.87% (2×) and 89.85% and 89.76% and 89.80%
  Glucose labeling, UMP (C00105): 70.24% and 69.75% and 64.97% and 37.55% and 64.64% and 60.30%
  Glucose labeling, UTP (C00075): 73.32% and 70.31% and 75.59% and 75.28% and 69.74% and 72.15%
  Glucose labeling, Uracil (C00106): 0.06% and 0.05% and 0.00305% and 0.0378% and 0.0737% (2×)
  Glucose labeling, Urocanate (C00785): 0.00% (5×) and -2.22e-14%
  Glucose labeling, Val (C00183): 0.00% (5×) and -2.22e-14%
  Glucose labeling, Vit-C (C00072): 0.00% (5×) and -2.22e-14%
  Glucose labeling, Xanthine (C00385): 0.12% (2×) and 0.06% and 0.0856% and 0.09% (2×)
  Relative level, Lac: 1.3 (2×) and 1.2 and 0.857 and 0.476 and 0.85
  Relative level, Leu/Ile: 1.4 and 1.5 (2×) and 0.9 (2×) and 1.0
  Relative level, Lys: 1.7 and 1.9 and 1.8 and 0.9 and 1.0 and 1.2
  Relative level, Mal: 1.3 and 0.7 and 0.752 and 0.6 and 0.471 and 0.4
  Relative level, Met: 1.5 (3×) and 0.9 (2×) and 1.0
  Relative level, N-Carbamoyl-L-aspartate: 1.0 and 0.6 and 0.7 and 0.749
  Relative level, NAD+: 1.0 and 0.9 (2×) and 0.647 and 0.7 and 0.752
  Relative level, NADP+: 0.455 and 0.8 and 0.9 and 0.657 and 0.3
  Relative level, Nicotinamide: 1.2 (2×) and 1.1 and 1.0 and 0.9 and 0.854
  Relative level, Ornithine: 1.1 and 1.4 (2×) and 0.7 and 0.9 and 1.0
  Relative level, Orotidine: 1.0 (3×) and 0.6 (2×) and 0.567
  Relative level, P-Choline: 1.3 and 1.1 (2×) and 0.76 and 0.66 and 0.557
  Relative level, P-Creatine: 1.7 and 0.9 (2×) and 0.7 and 1.5 and 1.2
  Relative level, P-EtA: 1.1 and 0.7 and 0.6 and 1.7 and 0.744 and 0.5
  Relative level, P-Ser: 1.0 (2×) and 1.1 and 0.37 and 0.234 and 0.273
  Relative level, PEP: 0.435 and 0.082
  Relative level, Palmitate: 0.9 (3×) and 1.1 and 1.2 and 1.0
  Relative level, Pantothenate: 1.2 and 1.3 and 1.4 and 0.7 and 0.8 (2×)
  Relative level, Phe: 1.4 and 1.5 (2×) and 0.9 (2×) and 1.0
  Relative level, Pipecolate: 1.6 and 1.9 and 1.8 and 0.9 (2×) and 1.2
  Relative level, Pro: 1.3 (2×) and 1.4 and 0.851 and 0.9 (2×)
  Relative level, Pro-OH: 1.3 and 1.4 (2×) and 0.9 (3×)
  Relative level, Pyr: 2.1 and 3.2 and 1.3 and 0.7 and 1.1 and 6.3
  Relative level, R5P: 3.5 and 1.8 and 2.1 and 1.2 and 0.468 and 0.53
  Relative level, S7P: 3.0 and 1.6 and 2.7 and 1.2 and 0.9 and 0.6
  Relative level, SAM: 1.6 and 1.7 (2×) and 0.9 and 1.1 (2×)

— publication PMC5556071, “ATR inhibition facilitates targeting of leukemia dependence on convergent nucleotide biosynthetic pathways” (Nature Communications, 2017)
